According to ChEMBL document CHEMBL3875145, “Highly potent anti-leishmanial derivatives of hederagenin, a triperpenoid from Sapindus saponaria L” (Eur J Med Chem, 2016):

system: Leishmania infantum; assay: Antiparasitic activity against Leishmania infantum MHOM/BR/70/BH46 promastigotes infected in dog DH82 cells at 1000 uM after 48 hrs by ELISA method; assay type: functional; details: MHOM/BR/70/BH46, DH82, 48 h

In order of rising inhibition at 1000 µM:
1. CC1(C)CC[C@]2(C(=O)OCc3cn(Cc4ccccc4Cl)nn3)CC[C@]3(C)C(=CC[C@@H]4[C@@]5(C)CC[C@H](O)[C@@](C)(CO)[C@@H]5CC[C@]43C)[C@@H]2C1  0%
2. CC1(C)CC[C@]2(C(=O)NCCN3CCCC3)CC[C@]3(C)C(=CC[C@@H]4[C@@]5(C)CC[C@H](O)[C@@](C)(CO)[C@@H]5CC[C@]43C)[C@@H]2C1  0%
3. CC1(C)CC[C@]2(C(=O)NCc3cn(Cc4ccccc4Cl)nn3)CC[C@]3(C)C(=CC[C@@H]4[C@@]5(C)CC[C@H](O)[C@@](C)(CO)[C@@H]5CC[C@]43C)[C@@H]2C1  0%
4. CC1(C)CC[C@]2(C(=O)NCCN3CCCCC3)CC[C@]3(C)C(=CC[C@@H]4[C@@]5(C)CC[C@H](O)[C@@](C)(CO)[C@@H]5CC[C@]43C)[C@@H]2C1  0%
5. CC1(C)CC[C@]2(C(=O)NCc3cn(Cc4ccccc4Br)nn3)CC[C@]3(C)C(=CC[C@@H]4[C@@]5(C)CC[C@H](O)[C@@](C)(CO)[C@@H]5CC[C@]43C)[C@@H]2C1  4.2%
6. CC1(C)CC[C@]2(C(=O)NCCN3CCOCC3)CC[C@]3(C)C(=CC[C@@H]4[C@@]5(C)CC[C@H](O)[C@@](C)(CO)[C@@H]5CC[C@]43C)[C@@H]2C1  7%
7. CC1(C)CC[C@]2(C(=O)NCc3ccccc3)CC[C@]3(C)C(=CC[C@@H]4[C@@]5(C)CC[C@H](O)[C@@](C)(CO)[C@@H]5CC[C@]43C)[C@@H]2C1  8.2%
8. CC1(C)CC[C@]2(C(=O)NCc3cn(Cc4ccc(F)cc4)nn3)CC[C@]3(C)C(=CC[C@@H]4[C@@]5(C)CC[C@H](O)[C@@](C)(CO)[C@@H]5CC[C@]43C)[C@@H]2C1  10.2%
9. CC1(C)CC[C@]2(C(=O)NCc3cn(Cc4ccccc4)nn3)CC[C@]3(C)C(=CC[C@@H]4[C@@]5(C)CC[C@H](O)[C@@](C)(CO)[C@@H]5CC[C@]43C)[C@@H]2C1  11%
10. CC1(C)CC[C@]2(C(=O)NCc3cn(Cc4ccc([N+](=O)[O-])cc4)nn3)CC[C@]3(C)C(=CC[C@@H]4[C@@]5(C)CC[C@H](O)[C@@](C)(CO)[C@@H]5CC[C@]43C)[C@@H]2C1  14%
11. C#CCNC(=O)[C@]12CCC(C)(C)C[C@H]1C1=CC[C@@H]3[C@@]4(C)CC[C@H](O)[C@@](C)(CO)[C@@H]4CC[C@@]3(C)[C@]1(C)CC2  15%
12. CC1(C)CC[C@]2(C(=O)OCc3ccccc3Cl)CC[C@]3(C)C(=CC[C@@H]4[C@@]5(C)CC[C@H](O)[C@@](C)(CO)[C@@H]5CC[C@]43C)[C@@H]2C1  15.8%
13. CC1(C)CC[C@]2(C(=O)OCc3ccc(F)cc3F)CC[C@]3(C)C(=CC[C@@H]4[C@@]5(C)CC[C@H](O)[C@@](C)(CO)[C@@H]5CC[C@]43C)[C@@H]2C1  16%
14. CC1(C)CC[C@]2(C(=O)OCc3cn(Cc4ccc([N+](=O)[O-])cc4)nn3)CC[C@]3(C)C(=CC[C@@H]4[C@@]5(C)CC[C@H](O)[C@@](C)(CO)[C@@H]5CC[C@]43C)[C@@H]2C1  17%
15. CC1(C)CC[C@]2(C(=O)OCc3cccc(Br)c3)CC[C@]3(C)C(=CC[C@@H]4[C@@]5(C)CC[C@H](O)[C@@](C)(CO)[C@@H]5CC[C@]43C)[C@@H]2C1  20%
16. CC1(C)CC[C@]2(C(=O)OCc3cccc(Cl)c3)CC[C@]3(C)C(=CC[C@@H]4[C@@]5(C)CC[C@H](O)[C@@](C)(CO)[C@@H]5CC[C@]43C)[C@@H]2C1  23%
17. CC1(C)CC[C@]2(C(=O)OCc3c(F)cccc3F)CC[C@]3(C)C(=CC[C@@H]4[C@@]5(C)CC[C@H](O)[C@@](C)(CO)[C@@H]5CC[C@]43C)[C@@H]2C1  25.2%
18. CC1(C)CC[C@]2(C(=O)NCc3cn(Cc4cccc([N+](=O)[O-])c4)nn3)CC[C@]3(C)C(=CC[C@@H]4[C@@]5(C)CC[C@H](O)[C@@](C)(CO)[C@@H]5CC[C@]43C)[C@@H]2C1  25.4%
19. CC1(C)CC[C@]2(C(=O)OCc3ccccc3F)CC[C@]3(C)C(=CC[C@@H]4[C@@]5(C)CC[C@H](O)[C@@](C)(CO)[C@@H]5CC[C@]43C)[C@@H]2C1  26%
20. CC1(C)CC[C@]2(C(=O)OCc3cn(Cc4cccc([N+](=O)[O-])c4)nn3)CC[C@]3(C)C(=CC[C@@H]4[C@@]5(C)CC[C@H](O)[C@@](C)(CO)[C@@H]5CC[C@]43C)[C@@H]2C1  26.3%
21. CC1(C)CC[C@]2(C(=O)NCc3cn(Cc4ccc(Br)cc4)nn3)CC[C@]3(C)C(=CC[C@@H]4[C@@]5(C)CC[C@H](O)[C@@](C)(CO)[C@@H]5CC[C@]43C)[C@@H]2C1  27%
22. CC1(C)CC[C@]2(C(=O)OCc3cn(Cc4ccc(Br)cc4)nn3)CC[C@]3(C)C(=CC[C@@H]4[C@@]5(C)CC[C@H](O)[C@@](C)(CO)[C@@H]5CC[C@]43C)[C@@H]2C1  27.7%
23. CC1(C)CC[C@]2(C(=O)OCc3ccc([N+](=O)[O-])cc3)CC[C@]3(C)C(=CC[C@@H]4[C@@]5(C)CC[C@H](O)[C@@](C)(CO)[C@@H]5CC[C@]43C)[C@@H]2C1  28%
24. CC1(C)CC[C@]2(C(=O)OCc3ccccc3)CC[C@]3(C)C(=CC[C@@H]4[C@@]5(C)CC[C@H](O)[C@@](C)(CO)[C@@H]5CC[C@]43C)[C@@H]2C1  30.2%
25. CC1(C)CC[C@]2(C(=O)NCc3cn(Cc4ccccc4F)nn3)CC[C@]3(C)C(=CC[C@@H]4[C@@]5(C)CC[C@H](O)[C@@](C)(CO)[C@@H]5CC[C@]43C)[C@@H]2C1  31%
26. CC1(C)CC[C@]2(C(=O)NCc3cn(Cc4cccc(Cl)c4)nn3)CC[C@]3(C)C(=CC[C@@H]4[C@@]5(C)CC[C@H](O)[C@@](C)(CO)[C@@H]5CC[C@]43C)[C@@H]2C1  31.1%
27. CC1(C)CC[C@]2(C(=O)NCc3cn(Cc4cccc(Br)c4)nn3)CC[C@]3(C)C(=CC[C@@H]4[C@@]5(C)CC[C@H](O)[C@@](C)(CO)[C@@H]5CC[C@]43C)[C@@H]2C1  33.3%
28. CC1(C)CC[C@]2(C(=O)OCc3cn(Cc4ccc(F)cc4)nn3)CC[C@]3(C)C(=CC[C@@H]4[C@@]5(C)CC[C@H](O)[C@@](C)(CO)[C@@H]5CC[C@]43C)[C@@H]2C1  33.3%
29. CC1(C)CC[C@]2(C(=O)OCc3cn(Cc4c(F)cccc4F)nn3)CC[C@]3(C)C(=CC[C@@H]4[C@@]5(C)CC[C@H](O)[C@@](C)(CO)[C@@H]5CC[C@]43C)[C@@H]2C1  34%
30. CC1(C)CC[C@]2(C(=O)OCc3cn(Cc4ccccc4Br)nn3)CC[C@]3(C)C(=CC[C@@H]4[C@@]5(C)CC[C@H](O)[C@@](C)(CO)[C@@H]5CC[C@]43C)[C@@H]2C1  34.6%
31. CC1(C)CC[C@]2(C(=O)OCc3cn(Cc4ccc(Cl)cc4)nn3)CC[C@]3(C)C(=CC[C@@H]4[C@@]5(C)CC[C@H](O)[C@@](C)(CO)[C@@H]5CC[C@]43C)[C@@H]2C1  35%
32. Cc1ccccc1COC(=O)[C@]12CCC(C)(C)C[C@H]1C1=CC[C@@H]3[C@@]4(C)CC[C@H](O)[C@@](C)(CO)[C@@H]4CC[C@@]3(C)[C@]1(C)CC2  39%
33. CC1(C)CC[C@]2(C(=O)OCc3ccccc3Br)CC[C@]3(C)C(=CC[C@@H]4[C@@]5(C)CC[C@H](O)[C@@](C)(CO)[C@@H]5CC[C@]43C)[C@@H]2C1  40%
34. CC1(C)CC[C@]2(C(=O)NCc3cn(Cc4c(Cl)cccc4Cl)nn3)CC[C@]3(C)C(=CC[C@@H]4[C@@]5(C)CC[C@H](O)[C@@](C)(CO)[C@@H]5CC[C@]43C)[C@@H]2C1  41.7%
35. CC1(C)CC[C@]2(C(=O)NCc3cn(Cc4ccc(F)cc4F)nn3)CC[C@]3(C)C(=CC[C@@H]4[C@@]5(C)CC[C@H](O)[C@@](C)(CO)[C@@H]5CC[C@]43C)[C@@H]2C1  41.8%
36. Cc1ccc(COC(=O)[C@]23CCC(C)(C)C[C@H]2C2=CC[C@@H]4[C@@]5(C)CC[C@H](O)[C@@](C)(CO)[C@@H]5CC[C@@]4(C)[C@]2(C)CC3)cc1  44%
37. CC1(C)CC[C@]2(C(=O)OCc3cn(Cc4c(Cl)cccc4Cl)nn3)CC[C@]3(C)C(=CC[C@@H]4[C@@]5(C)CC[C@H](O)[C@@](C)(CO)[C@@H]5CC[C@]43C)[C@@H]2C1  44.5%
38. CC1(C)CC[C@]2(C(=O)NCc3cn(Cc4c(F)cccc4F)nn3)CC[C@]3(C)C(=CC[C@@H]4[C@@]5(C)CC[C@H](O)[C@@](C)(CO)[C@@H]5CC[C@]43C)[C@@H]2C1  45%
39. CC1(C)CC[C@]2(C(=O)OCc3cn(Cc4ccccc4F)nn3)CC[C@]3(C)C(=CC[C@@H]4[C@@]5(C)CC[C@H](O)[C@@](C)(CO)[C@@H]5CC[C@]43C)[C@@H]2C1  48.3%
40. CC1(C)CC[C@]2(C(=O)NC(Cc3c[nH]c4ccccc34)C(=O)O)CC[C@]3(C)C(=CC[C@@H]4[C@@]5(C)CC[C@H](O)[C@@](C)(CO)[C@@H]5CC[C@]43C)[C@@H]2C1 (stereo partly specified)  50%
41. CC1(C)CC[C@]2(C(=O)OCc3cn(Cc4cccc(Cl)c4)nn3)CC[C@]3(C)C(=CC[C@@H]4[C@@]5(C)CC[C@H](O)[C@@](C)(CO)[C@@H]5CC[C@]43C)[C@@H]2C1  51.3%
42. CC1(C)CC[C@]2(C(=O)OCc3ccc(Cl)cc3)CC[C@]3(C)C(=CC[C@@H]4[C@@]5(C)CC[C@H](O)[C@@](C)(CO)[C@@H]5CC[C@]43C)[C@@H]2C1  53%
43. CC1(C)CC[C@]2(C(=O)OCc3ccc(F)cc3)CC[C@]3(C)C(=CC[C@@H]4[C@@]5(C)CC[C@H](O)[C@@](C)(CO)[C@@H]5CC[C@]43C)[C@@H]2C1  57%
44. COC(=O)C(NC(=O)[C@]12CCC(C)(C)C[C@H]1C1=CC[C@@H]3[C@@]4(C)CC[C@H](O)[C@@](C)(CO)[C@@H]4CC[C@@]3(C)[C@]1(C)CC2)c1ccccc1 (stereo partly specified)  60%
45. Cc1cccc(COC(=O)[C@]23CCC(C)(C)C[C@H]2C2=CC[C@@H]4[C@@]5(C)CC[C@H](O)[C@@](C)(CO)[C@@H]5CC[C@@]4(C)[C@]2(C)CC3)c1  66%
46. CC1(C)CC[C@]2(C(=O)OCc3ccccc3[N+](=O)[O-])CC[C@]3(C)C(=CC[C@@H]4[C@@]5(C)CC[C@H](O)[C@@](C)(CO)[C@@H]5CC[C@]43C)[C@@H]2C1  71.7%
